# Results as given in article doi:10.1101/2025.08.06.668955, “High-Affinity, Structure-Validated and Selective Macrocyclic Peptide Tools for Chemical Biology Studies of Huntingtin” (bioRxiv, 2025).
# Where a SMILES comes first, the peptide text is derived from it. Bridges are numbered along the chain shown (N, C = ends).
# Experiments:
# [1] = system: HAP40; experiment: Macrocycle precipitation (MP), co-purification of HAP40, LC-MS/MS; type: binding, human; conditions: HEK293T lysate versus HTT CRISPR knockout line
# Excerpt: To assess macrocycle selectivity and identify potential HTT interacting proteins, we performed LC-MS/MS analysis of the proteins in the MP eluates. To control for non-specific binding, we performed MPs using lysates from a HTT CRISPR knockout cell line ([Jung et al., 2021]). Across all macrocycles, HTT emerged as the most enriched protein after background subtraction (Figure 5b). Given we performed affinity purification using macrocycles targeting distinct HTT surfaces, we hypothesized that any real HTT protein binder might be co-purified with two or more macrocycles. […] In contrast, HAP40 was not enriched by HL5, consistent with its specificity for apo HTT.
# Macrocycles were pre-conjugated to streptavidin beads (Cytiva, 17-5113-01) by incubating with a 30 μL slurry of beads per macrocycle purification (MP) in Lysis Buffer (10 mM Tris-HCl, pH 7.9, 150 mM NaCl, 0.1% NP-40, 1:500 protease inhibitor cocktail (Sigma-Aldrich), 1:1,000 benzonase nuclease, and 2 mM MgCl2) for 1 hour at 4°C. A concentration of 1.25 μM macrocycle was used for conjugation. After incubation, beads were washed three times with 500 μL Lysis Buffer to remove unbound macrocycles and resuspended in 500 μL of lysate at 4 mg/mL protein concentration.
# Cells were harvested by centrifugation at 1,500 rpm for 5 minutes, washed twice with PBS, and snap-frozen. Cell pellets were then resuspended in 500 μL of Lysis Buffer (as described above) and incubated on an end-over-end rotator at 4°C for 1 hour. Lysates were clarified by centrifugation at 20,000g for 15 minutes at 4°C, and the supernatant was transferred to fresh 1.5 mL Eppendorf tubes. Protein concentration was determined by BCA assay (Thermo Fisher Scientific, 23225), yielding approximately 4 mg of protein on average. Lysates were diluted to a final concentration of 4 mg/mL for use, providing […] of total protein per MP.
# Macrocycle-conjugated beads were incubated with 2 mg of lysate in Lysis Buffer for 1 hour at 4°C with rotation. After incubation, beads were collected by centrifugation at 3,000 rpm, and the flow-through was saved for analysis. Beads were then washed sequentially with 1 mL of Wash Buffer 1 (10 mM Tris-HCl, pH 7.9, 100 mM NaCl, 0.1% NP-40) and twice with Wash Buffer 2 (Wash Buffer 1 without detergent). Lastly, bound proteins were eluted from the beads with 200 μL of 0.5 M NH4OH and flash-frozen in liquid nitrogen.
# All sample preparation, LC MS/MS data collection, and MS data searches were carried out at the SPARC BioCentre at The Hospital for Sick Children (Toronto, ON, Canada). […] Samples were analyzed by liquid chromatography tandem mass spectrometry (LC-MS/MS) using an EASY-nanoLC 1200 system with a 1 h analysis and an Orbitrap Fusion™ Lumos™ Tribrid™ Mass Spectrometer (Thermo Fisher Scientific). […]
# [2] = target: T1, HTTQ23-HAP40 (Homo sapiens, UniProt P23610+P42858, INS38QQ); experiment: Differential hydrogen-deuterium exchange mass spectrometry (ΔHDX-MS); type: binding; conditions: 15 μM protein, 1:4 macrocycle, labeling 0.5, 5, 30 mins at 20 °C
# T1 construct: Full-length wildtype HTT with a polyQ tract of 23 glutamines; FLAG; made in house; host or cells: Sf9 insect cells (baculovirus)
# Description: Samples were labeled at 3 timepoints (0.5, 5, 30 mins) with 87% (v/v) deuteration buffer (10 mM Phosphate Buffer pD 7.5, 150 mM NaCl) at 20 °C. The HDX reaction was quenched at 50% (v/v) with 7.5 M Guanidine-HCl, 0.5 M TCEP, 100 mM Phosphate Buffer pH 2.5 at 0 °C for 2 min and subsequently diluted with an equal volume of quench dilution buffer (100 mM Phosphate Buffer, pH 2.5). The protein was digested using 1:1 Nepenthesin(II)-Pepsin (Affipro) followed by desalting (ACQUITY UPLC BEH C18 VanGuard Pre-column, Waters) and reverse-phase separation (ACQUITY UPLC BEH C18 Column, Waters). Liquid handling was achieved using the ACQUITY UPLC M-Class System with HDX Technology (Waters) and PAL3 Robotic Tool Change (LEAP, Trajan Scientific and Medical). The peptides were then analyzed using the Select Series Cyclic IMS mass spectrometer (Q-IMS-TOF, Waters). Peptide identification and HDX data analysis were achieved using ProteinLynx Global Server 3.0.3 (Waters) and DynamX 3.0 (Waters), respectively. Microsoft Excel and PyMOL 2.5 were used for visual presentation of HDX data. An AlphaFold 3 model was used to incorporate missing loops for depicting HTTQ23 and HTTQ23-HAP40. The peptide sequence coverage for HTT and HAP40 was 56.6–76.8% and 77.4–82%, respectively (Supplementary Figure 3–5). […]
# T1 sequence (P42858 with tags, fused parts or gaps INS38QQ): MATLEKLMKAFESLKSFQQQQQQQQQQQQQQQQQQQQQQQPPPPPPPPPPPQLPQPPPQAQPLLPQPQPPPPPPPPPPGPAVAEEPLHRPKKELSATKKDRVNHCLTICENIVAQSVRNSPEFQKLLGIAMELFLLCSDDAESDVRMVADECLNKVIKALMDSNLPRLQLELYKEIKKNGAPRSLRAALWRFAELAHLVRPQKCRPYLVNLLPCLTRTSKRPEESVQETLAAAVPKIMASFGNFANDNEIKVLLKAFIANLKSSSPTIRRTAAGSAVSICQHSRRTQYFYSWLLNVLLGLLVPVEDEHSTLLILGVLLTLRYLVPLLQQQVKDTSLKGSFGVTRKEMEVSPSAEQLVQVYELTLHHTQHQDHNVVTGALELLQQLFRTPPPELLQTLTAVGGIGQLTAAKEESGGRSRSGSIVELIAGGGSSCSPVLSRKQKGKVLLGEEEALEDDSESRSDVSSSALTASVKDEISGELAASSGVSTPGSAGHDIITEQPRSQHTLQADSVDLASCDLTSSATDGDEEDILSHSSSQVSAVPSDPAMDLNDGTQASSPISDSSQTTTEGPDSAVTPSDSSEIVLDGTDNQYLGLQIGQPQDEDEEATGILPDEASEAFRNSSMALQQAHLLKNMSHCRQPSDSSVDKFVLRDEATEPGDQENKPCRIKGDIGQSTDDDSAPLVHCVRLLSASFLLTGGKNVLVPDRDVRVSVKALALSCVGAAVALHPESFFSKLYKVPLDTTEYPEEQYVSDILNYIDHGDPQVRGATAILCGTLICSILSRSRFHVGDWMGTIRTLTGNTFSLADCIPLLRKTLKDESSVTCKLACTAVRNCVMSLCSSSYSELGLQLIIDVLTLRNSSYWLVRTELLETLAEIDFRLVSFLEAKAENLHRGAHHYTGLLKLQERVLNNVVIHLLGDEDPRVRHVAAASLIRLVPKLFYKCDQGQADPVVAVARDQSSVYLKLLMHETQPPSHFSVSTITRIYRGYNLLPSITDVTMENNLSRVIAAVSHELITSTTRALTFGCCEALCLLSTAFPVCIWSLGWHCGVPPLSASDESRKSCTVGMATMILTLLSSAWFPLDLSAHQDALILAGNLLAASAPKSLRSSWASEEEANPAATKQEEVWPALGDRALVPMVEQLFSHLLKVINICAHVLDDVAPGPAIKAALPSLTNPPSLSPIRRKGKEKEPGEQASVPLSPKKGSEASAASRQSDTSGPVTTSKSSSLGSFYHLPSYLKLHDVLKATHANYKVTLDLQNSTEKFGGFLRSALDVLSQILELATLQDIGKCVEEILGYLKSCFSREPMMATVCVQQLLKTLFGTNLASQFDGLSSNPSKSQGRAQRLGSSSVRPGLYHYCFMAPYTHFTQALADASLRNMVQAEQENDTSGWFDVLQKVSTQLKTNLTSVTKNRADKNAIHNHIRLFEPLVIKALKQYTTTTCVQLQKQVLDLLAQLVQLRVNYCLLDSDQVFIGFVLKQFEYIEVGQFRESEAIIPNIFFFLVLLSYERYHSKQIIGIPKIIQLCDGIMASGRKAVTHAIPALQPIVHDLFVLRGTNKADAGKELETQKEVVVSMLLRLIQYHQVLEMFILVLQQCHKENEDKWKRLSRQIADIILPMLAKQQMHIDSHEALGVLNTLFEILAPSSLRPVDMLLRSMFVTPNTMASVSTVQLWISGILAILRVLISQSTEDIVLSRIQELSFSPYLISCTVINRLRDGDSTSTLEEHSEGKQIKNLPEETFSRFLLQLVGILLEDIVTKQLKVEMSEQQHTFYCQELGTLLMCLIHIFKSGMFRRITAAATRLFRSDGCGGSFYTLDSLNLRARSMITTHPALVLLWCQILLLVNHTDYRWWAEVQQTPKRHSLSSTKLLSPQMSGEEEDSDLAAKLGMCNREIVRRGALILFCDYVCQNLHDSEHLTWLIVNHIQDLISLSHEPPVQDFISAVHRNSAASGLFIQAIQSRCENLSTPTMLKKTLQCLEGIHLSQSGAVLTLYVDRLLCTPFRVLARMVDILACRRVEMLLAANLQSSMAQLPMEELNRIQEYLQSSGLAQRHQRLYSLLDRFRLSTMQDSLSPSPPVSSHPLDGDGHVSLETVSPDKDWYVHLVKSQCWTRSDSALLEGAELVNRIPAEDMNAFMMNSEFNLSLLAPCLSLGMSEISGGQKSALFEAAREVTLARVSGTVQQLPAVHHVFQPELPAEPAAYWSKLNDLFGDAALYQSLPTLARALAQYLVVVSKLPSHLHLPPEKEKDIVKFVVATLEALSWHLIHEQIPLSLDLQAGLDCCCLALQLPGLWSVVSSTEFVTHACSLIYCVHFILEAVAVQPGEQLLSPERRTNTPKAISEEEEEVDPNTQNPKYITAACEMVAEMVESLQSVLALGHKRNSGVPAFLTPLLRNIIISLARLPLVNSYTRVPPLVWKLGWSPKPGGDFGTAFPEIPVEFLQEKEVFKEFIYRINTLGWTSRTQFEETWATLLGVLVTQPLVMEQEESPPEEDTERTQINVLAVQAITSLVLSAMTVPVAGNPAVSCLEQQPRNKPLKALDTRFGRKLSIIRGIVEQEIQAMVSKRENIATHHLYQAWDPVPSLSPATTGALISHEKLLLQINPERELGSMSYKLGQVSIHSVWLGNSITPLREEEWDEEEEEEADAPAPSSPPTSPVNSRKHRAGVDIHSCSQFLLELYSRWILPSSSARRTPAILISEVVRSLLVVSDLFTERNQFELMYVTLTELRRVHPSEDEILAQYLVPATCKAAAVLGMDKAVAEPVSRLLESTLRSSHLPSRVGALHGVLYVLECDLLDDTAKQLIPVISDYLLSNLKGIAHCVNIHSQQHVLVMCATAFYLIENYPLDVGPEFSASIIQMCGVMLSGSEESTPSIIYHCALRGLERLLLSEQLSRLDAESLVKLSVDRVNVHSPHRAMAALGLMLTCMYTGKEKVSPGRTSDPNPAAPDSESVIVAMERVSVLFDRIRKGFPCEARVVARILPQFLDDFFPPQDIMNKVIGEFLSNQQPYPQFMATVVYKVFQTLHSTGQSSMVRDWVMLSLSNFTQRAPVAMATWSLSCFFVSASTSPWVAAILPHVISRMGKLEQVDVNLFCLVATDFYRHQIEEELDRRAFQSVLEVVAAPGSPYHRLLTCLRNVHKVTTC
# T1 sequence (P23610 whole entry, stated change not applied): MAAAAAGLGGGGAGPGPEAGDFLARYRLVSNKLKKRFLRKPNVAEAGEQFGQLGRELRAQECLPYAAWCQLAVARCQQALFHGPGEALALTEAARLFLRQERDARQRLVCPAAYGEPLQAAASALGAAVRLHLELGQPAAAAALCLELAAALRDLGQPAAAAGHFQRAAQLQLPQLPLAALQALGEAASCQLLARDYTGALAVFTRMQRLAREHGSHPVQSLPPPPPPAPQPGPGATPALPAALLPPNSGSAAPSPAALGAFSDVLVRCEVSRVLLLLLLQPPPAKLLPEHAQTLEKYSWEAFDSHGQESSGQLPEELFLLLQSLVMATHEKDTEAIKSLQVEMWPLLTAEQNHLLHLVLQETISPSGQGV
smiles,measurement,setting,value
CC[C@H](C)[C@@H]1NC(=O)[C@H](Cc2c[nH]c3ccccc23)NC(=O)[C@@H]2CCCN2C(=O)[C@H](C)NC(=O)[C@H](C(C)C)NC(=O)[C@H](CCC(N)=O)NC(=O)[C@H](Cc2ccccc2)NC(=O)[C@H](Cc2c[nH]cn2)NC(=O)[C@H]([C@@H](C)O)NC(=O)[C@H](Cc2ccc(O)cc2)NC(=O)CSC[C@@H](C(N)=O)NC(=O)[C@H](CC(C)C)NC(=O)[C@H](CO)NC(=O)[C@H](CCC(N)=O)NC1=O [HL5] ({CH2CO}-YTHFQVAPWIQSLC-NH2; thioether N-14; C-terminus assumed),Enrichment of HAP40 in macrocycle pulldowns,[1],not enriched
same,Cumulative ΔHDX of HTTQ23-HAP40 on incubation with macrocycle,[2],no statistically significant cumulative HDX differences
